Read-outs that look alike come from different tables or passages of the source.
Legend:
human CB1R [1] = target: T1, human CB1R (Homo sapiens, UniProt P21554); format: cell-based
T1 construct: expressed in transfected cells; host or cells: HEK293T (HEK293T-CB1), transiently co-transfected with the CRE-luc reporter

human CB1R [2] = target: T1, human CB1R; format: cell-based; conditions: for Effect of the cannabinoid on the DLPA effect (DLPA alone vs combos): FIG. 5A-5C
[3] = tested on: neuropathic and chronic pain; conditions: 1,000 mg given ×1 (once a day); cited from earlier work
inflammation = conditions: co-administered with THC; cited from earlier work
[4] = cited from earlier work
[5] = tested on: glutamatergic synapses in hippocampus and cortex; conditions: cited from earlier work
[6] = target: α2δ Ca2+ calcium channels; conditions: antagonist; cited from earlier work
[7] = DLPA 1 mM, alone or + 10 μM THCA or THC
[8] = DLPA 2.5 mM, alone or + 10 μM THCA or THC
[9] = DLPA 5 mM, alone or + 10 μM THCA or THC
[10] = DLPA 7.5 mM, alone or + 10 μM THCA or THC
[11] = DLPA 10 mM, alone or + 10 μM THCA or THC
[12] = DLPA 1 mM, alone or + 10 μM THCA, 1 μM CBD or 10 μM THC
[13] = DLPA 2.5 mM, alone or + 10 μM THCA, 1 μM CBD or 10 μM THC
[14] = DLPA 5 mM, alone or + 10 μM THCA, 1 μM CBD or 10 μM THC
[15] = DLPA 7.5 mM, alone or + 10 μM THCA, 1 μM CBD or 10 μM THC
[16] = DLPA 10 mM, alone or + 10 μM THCA, 1 μM CBD or 10 μM THC
[17] = THCA or THC without DLPA, 10 μM

T1 sequence (P21554 whole entry): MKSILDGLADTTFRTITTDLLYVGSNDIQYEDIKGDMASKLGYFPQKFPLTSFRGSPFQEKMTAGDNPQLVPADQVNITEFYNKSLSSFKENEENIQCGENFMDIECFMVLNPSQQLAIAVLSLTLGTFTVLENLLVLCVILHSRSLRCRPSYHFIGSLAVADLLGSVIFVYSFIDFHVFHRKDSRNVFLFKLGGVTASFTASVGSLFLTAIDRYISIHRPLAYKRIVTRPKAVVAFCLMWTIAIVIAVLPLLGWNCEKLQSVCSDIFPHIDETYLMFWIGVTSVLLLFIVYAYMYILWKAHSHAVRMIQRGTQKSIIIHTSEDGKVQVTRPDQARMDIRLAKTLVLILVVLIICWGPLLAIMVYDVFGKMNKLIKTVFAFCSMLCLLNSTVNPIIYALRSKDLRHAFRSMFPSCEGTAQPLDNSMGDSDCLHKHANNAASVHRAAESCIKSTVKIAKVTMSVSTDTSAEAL

NC(Cc1ccccc1)C(=O)O (racemic) [DLPA, DL-Phenylalanine]
Conclusions: Is CB1R agonist effect observed? (human CB1R [1]; [7]): Negative (Only treatments that the mean of three consecutive independent experiments shows a positive result: CB1R activity ≥2.5-fold increase or ≥4-fold increase are considered CB1R agonists or CB1R positive allosteric modulators)
Experiment 1 Fold change (human CB1R [1]; [7]): 0.9 fold change
Experiment 2 Fold change (human CB1R [1]; [7]): 0.9 fold change
Experiment 3 Fold change (human CB1R [1]; [7]): 1.0 fold change
Conclusions: Is CB1R agonist effect observed? (human CB1R [1]; [8]): Negative (Only treatments that the mean of three consecutive independent experiments shows a positive result: CB1R activity ≥2.5-fold increase or ≥4-fold increase are considered CB1R agonists or CB1R positive allosteric modulators)
Experiment 1 Fold change (human CB1R [1]; [8]): 1.0 fold change
Experiment 2 Fold change (human CB1R [1]; [8]): 0.9 fold change
Experiment 3 Fold change (human CB1R [1]; [8]): 0.9 fold change
Conclusions: Is CB1R agonist effect observed? (human CB1R [1]; [9]): Negative (Only treatments that the mean of three consecutive independent experiments shows a positive result: CB1R activity ≥2.5-fold increase or ≥4-fold increase are considered CB1R agonists or CB1R positive allosteric modulators)
Experiment 1 Fold change (human CB1R [1]; [9]): 0.8 fold change
Experiment 2 Fold change (human CB1R [1]; [9]): 0.8 fold change
Experiment 3 Fold change (human CB1R [1]; [9]): 0.7 fold change
Conclusions: Is CB1R agonist effect observed? (human CB1R [1]; [10]): Negative (Only treatments that the mean of three consecutive independent experiments shows a positive result: CB1R activity ≥2.5-fold increase or ≥4-fold increase are considered CB1R agonists or CB1R positive allosteric modulators)
Experiment 1 Fold change (human CB1R [1]; [10]): 1.0 fold change
Experiment 2 Fold change (human CB1R [1]; [10]): 0.8 fold change
Experiment 3 Fold change (human CB1R [1]; [10]): 1.0 fold change
Conclusions: Is CB1R agonist effect observed? (human CB1R [1]; [11]): Negative (Only treatments that the mean of three consecutive independent experiments shows a positive result: CB1R activity ≥2.5-fold increase or ≥4-fold increase are considered CB1R agonists or CB1R positive allosteric modulators)
Experiment 1 Fold change (human CB1R [1]; [11]): 1.1 fold change
Experiment 2 Fold change (human CB1R [1]; [11]): 1.0 fold change
Experiment 3 Fold change (human CB1R [1]; [11]): 1.0 fold change
CB1R agonistic activity (in words) (human CB1R [1]; all tested concentrations, DLPA 1-10 mM, THC or THCA 10 μM): did not show CB1R agonistic activity
Conclusions: Is CB1R positive allosteric agonism effect observed? (human CB1R [2]; [12]): Negative (Only treatments that the mean of three consecutive independent experiments shows a positive result (CB1R activity ≥4-fold change) are considered positive CB1R allosteric agonists)
Experiment 1 Fold change (human CB1R [2]; [12]): 2.7 fold change
Experiment 2 Fold change (human CB1R [2]; [12]): 2.5 fold change
Experiment 3 Fold change (human CB1R [2]; [12]): 3.0 fold change
Conclusions: Is CB1R positive allosteric agonism effect observed? (human CB1R [2]; [13]): Negative (Only treatments that the mean of three consecutive independent experiments shows a positive result (CB1R activity ≥4-fold change) are considered positive CB1R allosteric agonists)
Experiment 1 Fold change (human CB1R [2]; [13]): 2.4 fold change
Experiment 2 Fold change (human CB1R [2]; [13]): 2.1 fold change
Experiment 3 Fold change (human CB1R [2]; [13]): 4.0 fold change
Conclusions: Is CB1R positive allosteric agonism effect observed? (human CB1R [2]; [14]): Negative (Only treatments that the mean of three consecutive independent experiments shows a positive result (CB1R activity ≥4-fold change) are considered positive CB1R allosteric agonists)
Experiment 1 Fold change (human CB1R [2]; [14]): 3.1 fold change
Experiment 2 Fold change (human CB1R [2]; [14]): 2.7 fold change
Experiment 3 Fold change (human CB1R [2]; [14]): 2.9 fold change
Conclusions: Is CB1R positive allosteric agonism effect observed? (human CB1R [2]; [15]): Negative (Only treatments that the mean of three consecutive independent experiments shows a positive result (CB1R activity ≥4-fold change) are considered positive CB1R allosteric agonists)
Experiment 1 Fold change (human CB1R [2]; [15]): 3.1 fold change
Experiment 2 Fold change (human CB1R [2]; [15]): 3.1 fold change
Experiment 3 Fold change (human CB1R [2]; [15]): 5.0 fold change
Conclusions: Is CB1R positive allosteric agonism effect observed? (human CB1R [2]; [16]): Allosterism (An increase of the fold change ≥4-fold indicates CB1R positive allosteric agonistic activity)
Experiment 1 Fold change (human CB1R [2]; [16]): 4.0 fold change
Experiment 2 Fold change (human CB1R [2]; [16]): 3.5 fold change
Experiment 3 Fold change (human CB1R [2]; [16]): 6.5 fold change
CB1R positive allosteric effect (in words) (human CB1R [2]; on CP-55940 activity, dose-response curve, FIG. 4): clear CB1R positive allosteric effect
Relief of neuropathic and chronic pain [3]: beneficial

CCCCCc1cc(O)c2c(c1)OC(C)(CCC=C(C)C)C=C2 (stereo not drawn) [CBC, cannabichromene]
Anti-inflammatory effect (inflammation): enhanced anti-inflammatory effect

C=C(C)[C@@H]1CCC(C)=C[C@H]1c1c(O)cc(CCCCC)cc1O [CBD, cannabidiol, reference compound]
Conclusions: Is CB1R positive allosteric agonism effect observed? (human CB1R [2]; CBD without DLPA, 1 μM): Negative (Only treatments that the mean of three consecutive independent experiments shows a positive result (CB1R activity ≥4-fold change) are considered positive CB1R allosteric agonists)
Experiment 1 Fold change (human CB1R [2]; CBD without DLPA, 1 μM): 1.4 fold change
Experiment 2 Fold change (human CB1R [2]; CBD without DLPA, 1 μM): 1.5 fold change
Experiment 3 Fold change (human CB1R [2]; CBD without DLPA, 1 μM): 1.4 fold change
Effect of the cannabinoid on the DLPA effect (DLPA alone vs combos) (human CB1R [2]): blocked not only the DLPA CB1R allosteric activity, but also the agonistic activity of CP-55940

C=C(C)[C@@H]1CCC(C)=C[C@H]1c1c(O)cc(CCCCC)c(C(=O)O)c1O [CBDA, cannabidiolic acid]
Decarboxylation by gastric acids [4]: do not decarboxylate

CCCCCCC(C)(C)c1ccc([C@@H]2C[C@H](O)CC[C@H]2CCCO)c(O)c1 [CP, reference compound]
Experiment 1 Fold change (human CB1R [1]): 2.5 fold change
Experiment 2 Fold change (human CB1R [1]): 2.5 fold change
Experiment 3 Fold change (human CB1R [1]): 2.5 fold change
Experiment 1 Fold change (human CB1R [2]): 2.5 fold change
Experiment 2 Fold change (human CB1R [2]): 2.5 fold change
Experiment 3 Fold change (human CB1R [2]): 2.5 fold change

N[C@H](Cc1ccccc1)C(=O)O [D-phenylalanine]
Effect on neurotransmitter release (in words) ([5]; compared with L-Phenylalanine): significantly smaller effect

N[C@@H](Cc1ccccc1)C(=O)O [L-Phenylalanine, L-phenylalanine]
Ki [6]: 0.98 µM
IC50 ([5]; hippocampus and cortex): 980 µM

CCCCCc1cc2c(c(O)c1C(=O)O)[C@@H]1C=C(C)CC[C@H]1C(C)(C)O2 [THCA, tetrahydrocannabinolic acid]
Conclusions: Is CB1R agonist effect observed? (human CB1R [1]; THCA or THC alone, 10 μM): Negative (Only treatments that the mean of three consecutive independent experiments shows a positive result: CB1R activity ≥2.5-fold increase or ≥4-fold increase are considered CB1R agonists or CB1R positive allosteric modulators)
Experiment 1 Fold change (human CB1R [1]; THCA or THC alone, 10 μM): 0.8 fold change
Experiment 2 Fold change (human CB1R [1]; THCA or THC alone, 10 μM): 1.0 fold change
Experiment 3 Fold change (human CB1R [1]; THCA or THC alone, 10 μM): 1.0 fold change
Effect of the cannabinoid on the DLPA effect (DLPA alone vs combos) (human CB1R [2]): did not modify the DLPA effect
Conclusions: Is CB1R positive allosteric agonism effect observed? (human CB1R [2]; [17]): Negative (Only treatments that the mean of three consecutive independent experiments shows a positive result (CB1R activity ≥4-fold change) are considered positive CB1R allosteric agonists)
Experiment 1 Fold change (human CB1R [2]; [17]): 2.2 fold change
Experiment 2 Fold change (human CB1R [2]; [17]): 3.1 fold change
Experiment 3 Fold change (human CB1R [2]; [17]): 2.8 fold change
Decarboxylation by gastric acids [4]: do not decarboxylate
